Test results from PubChem BioAssay AID330 (DTP/NCI, 2004).
Values joined by “and” are separate entries in the source; they are usually repeats but may differ in a detail not shown here. Equal values may be shown once. Toxic doses and inconclusive results are not listed. The calls were made as follows: active = survival T/C of 150% or more; inactive = T/C below 125% in these data.

Test system: P388 leukemia ip, CD2F1 mice, survival T/C
Assay: NCI In Vivo Anticancer Drug Screen. Data for tumor model P388 Leukemia (intraperitoneal) in CD2F1 (CDF1) mice
Details: endpoint: median survival time, higher = longer survival
Method in brief: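 Mice carrying the transplanted tumor received test compound or vehicle. Survival was recorded in each group, and the value is the treated-group measurement divided by that of the vehicle-treated control group.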

[1] = dose: 100.0 mg/kg/injection, schedule: Q01DX001 (ip), vehicle: saline with Tween-80
[2] = dose: 200.0 mg/kg/injection, schedule: Q01DX001 (ip), vehicle: saline with Tween-80
[3] = dose: 400.0 mg/kg/injection, schedule: Q01DX001 (ip), vehicle: saline with Tween-80
[4] = dose: 50.0 mg/kg/injection, schedule: Q01DX009 (ip), vehicle: saline with Tween-80
[5] = dose: 100.0 mg/kg/injection, schedule: Q01DX009 (ip), vehicle: saline with Tween-80
[6] = dose: 200.0 mg/kg/injection, schedule: Q01DX009 (ip), vehicle: saline with Tween-80
[7] = dose: 50.0 mg/kg/injection, schedule: Q01DX005 (ip), vehicle: saline with Tween-80
[8] = dose: 100.0 mg/kg/injection, schedule: Q01DX005 (ip), vehicle: saline with Tween-80
[9] = dose: 12.5 mg/kg/injection, schedule: Q01DX009 (ip), vehicle: saline with Tween-80
[10] = dose: 50.0 mg/kg/injection, schedule: Q01DX005 (ip), vehicle: Klucel (hydroxypropylcellulose) (HPC)
[11] = dose: 100.0 mg/kg/injection, schedule: Q01DX005 (ip), vehicle: Klucel (hydroxypropylcellulose) (HPC)
[12] = dose: 50.0 mg/kg/injection, schedule: Q01DX009 (ip), vehicle: saline
[13] = dose: 200.0 mg/kg/injection, schedule: Q01DX009 (ip), vehicle: saline
[14] = dose: 50.0 mg/kg/injection, schedule: Q01DX009 (ip), vehicle: Klucel (hydroxypropylcellulose) (HPC)
[15] = dose: 100.0 mg/kg/injection, schedule: Q01DX009 (ip), vehicle: Klucel (hydroxypropylcellulose) (HPC)
[16] = dose: 200.0 mg/kg/injection, schedule: Q01DX009 (ip), vehicle: Klucel (hydroxypropylcellulose) (HPC)
[17] = dose: 25.0 mg/kg/injection, schedule: Q01DX005 (ip), vehicle: saline with Tween-80
[18] = dose: 60.0 mg/kg/injection, schedule: Q01DX005 (ip), vehicle: saline with Tween-80
[19] = dose: 25.0 mg/kg/injection, schedule: Q01DX009 (ip), vehicle: saline

Measured: T/C

CCC(c1ccc(OC)cc1)C(NCC(=O)NNC(=S)NCc1ccccc1)c1ccc(OC)cc1 (configuration not stated)
inactive: [1] 92 % of control | [2] 99 % of control | [3] 99 % of control

C/C=C(\C#N)SCC
inactive: [4] 103 % of control | [5] 114 % of control | [6] 109 % of control

COC(=O)c1c(C(=O)Nc2ccccc2)c(-c2ccccc2)n(NC(N)=O)c1C
inactive: [7] 112 % of control | [8] 107 % of control | dose: 200.0 mg/kg/injection, schedule: Q01DX005 (ip), vehicle: saline with Tween-80 104 % of control

C#CCNC(=S)N/N=C(\C)c1ccccn1
inactive: dose: 3.13 mg/kg/injection, schedule: Q01DX009 (ip), vehicle: saline with Tween-80 97 % of control | dose: 6.25 mg/kg/injection, schedule: Q01DX009 (ip), vehicle: saline with Tween-80 97 % of control | [9] 103 % of control

O=C1c2ccc(Cl)cc2OCCC1CN1CCCCC1 (configuration not stated)
inactive: dose: 100.0 mg/kg/injection, schedule: Q04DX003 (ip), vehicle: saline 100 % of control | dose: 200.0 mg/kg/injection, schedule: Q04DX003 (ip), vehicle: saline 103 % of control

C1CCC2C(C1)CCC1CCCCC12 (configuration not stated)
inactive: dose: 25.0 mg/kg/injection, schedule: Q01DX001 (ip), vehicle: saline with Tween-80 96 % of control | dose: 50.0 mg/kg/injection, schedule: Q01DX001 (ip), vehicle: saline with Tween-80 113 % of control | [1] 100 % of control and 114 % of control | [2] 110 % of control

O=C(Cc1nc2ccccc2[nH]1)NNC(=S)NC1CCCCC1
inactive: [10] 87 % of control | [11] 88 % of control

C=C(CC(=O)Nc1nc(C)c(C(=O)OC)s1)C(=O)O
inactive: [9] 107 % of control | dose: 25.0 mg/kg/injection, schedule: Q01DX009 (ip), vehicle: saline with Tween-80 100 % of control | [4] 105 % of control | [12] 99 % of control | [13] 96 % of control

CCC(C)(CC(=O)O)c1ccccc1 (configuration not stated)
inactive: dose: 25.0 mg/kg/injection, schedule: Q04DX003 (ip), vehicle: Klucel (hydroxypropylcellulose) (HPC) 108 % of control | dose: 50.0 mg/kg/injection, schedule: Q04DX003 (ip), vehicle: Klucel (hydroxypropylcellulose) (HPC) 111 % of control | dose: 100.0 mg/kg/injection, schedule: Q04DX003 (ip), vehicle: Klucel (hydroxypropylcellulose) (HPC) 112 % of control | dose: 200.0 mg/kg/injection, schedule: Q04DX003 (ip), vehicle: Klucel (hydroxypropylcellulose) (HPC) 115 % of control

Cc1nnc(Cc2ccco2)c2n[nH]c(C)c12
inactive: [14] 96 % of control | [15] 99 % of control | [16] 100 % of control

CC(=O)C[n+]1ccccc1Cc1ccccc1
inactive: [17] 99 % of control | [7] 100 % of control

CCC(O)C1(OC)C=CC(OC)O1 (configuration not stated)
inactive: dose: 3.12 mg/kg/injection, schedule: Q01DX005 (ip), vehicle: saline 100 % of control | dose: 6.25 mg/kg/injection, schedule: Q01DX005 (ip), vehicle: saline 97 % of control | dose: 12.5 mg/kg/injection, schedule: Q01DX005 (ip), vehicle: saline 101 % of control

COC(=O)[C@]12C(=O)C=CC(=O)C1CC=CC2C(OC(C)=O)C(COC(C)=O)OC(C)=O (some centres not stated)
inactive: [1] 103 % of control | [2] 100 % of control | [3] 103 % of control

O=Cc1c(-c2ccc(-c3ccccc3)cc2)nc2n1CCS2
inactive: dose: 100.0 mg/kg/injection, schedule: Q01DX001 (ip), vehicle: Klucel (hydroxypropylcellulose) (HPC) 100 % of control | dose: 200.0 mg/kg/injection, schedule: Q01DX001 (ip), vehicle: Klucel (hydroxypropylcellulose) (HPC) 97 % of control

O=C(Nc1cc(NC(=O)n2nnc3ccccc32)c(Br)cc1Br)n1nnc2ccccc21
inactive: [14] 91 % of control | [15] 89 % of control | [16] 97 % of control

COc1cc(Br)c(-c2coc3c(OC)c(OC)ccc3c2=O)cc1OC
inactive: dose: 15.0 mg/kg/injection, schedule: Q01DX005 (ip), vehicle: saline with Tween-80 89 % of control | dose: 30.0 mg/kg/injection, schedule: Q01DX005 (ip), vehicle: saline with Tween-80 88 % of control | [18] 86 % of control

O=C(N/N=C\c1c(O)ccc2ccccc12)c1ccncc1
inactive: [7] 104 % of control | [8] 105 % of control

NOCc1ccccc1CON
inactive: dose: 37.5 mg/kg/injection, schedule: Q01DX009 (ip), vehicle: saline with Tween-80 86 % of control | dose: 75.0 mg/kg/injection, schedule: Q01DX009 (ip), vehicle: saline with Tween-80 91 % of control | dose: 150.0 mg/kg/injection, schedule: Q01DX009 (ip), vehicle: saline with Tween-80 104 % of control

C=CCOCC(O)Cn1cnc2c(N)ncnc21 (configuration not stated)
inactive: [10] 97 % of control | [11] 106 % of control | dose: 200.0 mg/kg/injection, schedule: Q01DX005 (ip), vehicle: Klucel (hydroxypropylcellulose) (HPC) 100 % of control

O=C(O)c1cc(C(=O)CCCCC(=O)c2cc(C(=O)O)c(O)c3ccccc23)c2ccccc2c1O
inactive: [4] 90 % of control | [5] 90 % of control | [6] 92 % of control

NC(CC(=O)O)C(=O)OCc1ccccc1 (configuration not stated)
inactive: [19] 97 % of control | [12] 100 % of control | dose: 100.0 mg/kg/injection, schedule: Q01DX009 (ip), vehicle: saline 100 % of control | [13] 98 % of control

O=C(O)CCCNC1=CC(=O)c2ccccc2C1=O
inactive: dose: 25.0 mg/kg/injection, schedule: Q04DX003 (ip), vehicle: saline with Tween-80 101 % of control | dose: 50.0 mg/kg/injection, schedule: Q04DX003 (ip), vehicle: saline with Tween-80 104 % of control | dose: 100.0 mg/kg/injection, schedule: Q04DX003 (ip), vehicle: saline with Tween-80 102 % of control and 86 % of control

COC(=O)C1(C)N=C1N(C)C (configuration not stated)
inactive: dose: 100.0 mg/kg/injection, schedule: Q04DX002 (ip), vehicle: saline 92 % of control | dose: 200.0 mg/kg/injection, schedule: Q04DX002 (ip), vehicle: saline 90 % of control | dose: 400.0 mg/kg/injection, schedule: Q04DX002 (ip), vehicle: saline 93 % of control

CCCCCCCCCCCCCCCCOc1ccccc1CNc1cc(C(F)(F)F)ccc1Cl
inactive: dose: 100.0 mg/kg/injection, schedule: Q04DX003 (ip), vehicle: other 95 % of control | dose: 200.0 mg/kg/injection, schedule: Q04DX003 (ip), vehicle: other 100 % of control | dose: 400.0 mg/kg/injection, schedule: Q04DX003 (ip), vehicle: other 90 % of control

CN(C)CCCC1(c2cccc(Cl)c2)SC(C)(C)c2ccccc21 (configuration not stated)
inactive: dose: 25.0 mg/kg/injection, schedule: Q01DX001 (ip), vehicle: saline 97 % of control | dose: 50.0 mg/kg/injection, schedule: Q01DX001 (ip), vehicle: saline 93 % of control

NS(=O)(=O)C1CCCCC1
inactive: dose: 3.13 mg/kg/injection, schedule: Q01DX009 (ip), vehicle: saline 106 % of control | dose: 6.25 mg/kg/injection, schedule: Q01DX009 (ip), vehicle: saline 99 % of control | dose: 12.5 mg/kg/injection, schedule: Q01DX009 (ip), vehicle: saline 106 % of control | [19] 106 % of control

NC(CS(=O)(=O)NO)C(=O)O (configuration not stated)
inactive: dose: 60.0 mg/kg/injection, schedule: Q01DX009 (ip), vehicle: saline with Tween-80 97 % of control | dose: 120.0 mg/kg/injection, schedule: Q01DX009 (ip), vehicle: saline with Tween-80 113 % of control | dose: 240.0 mg/kg/injection, schedule: Q01DX009 (ip), vehicle: saline with Tween-80 119 % of control

COc1ccc(NS(=O)(=O)c2ccc(F)cc2)cc1
inactive: [18] 99 % of control | dose: 120.0 mg/kg/injection, schedule: Q01DX005 (ip), vehicle: saline with Tween-80 106 % of control | dose: 240.0 mg/kg/injection, schedule: Q01DX005 (ip), vehicle: saline with Tween-80 106 % of control

CCN(CC)CCOCc1ccc2c(c1)OCO2
inactive: [17] 113 % of control | [7] 113 % of control | [8] 111 % of control
